Here are results for one compound from patent US12144799B2, “Method for long-term storage of chlorophyll-containing extract” (ABL CO., LTD, priority 2018, dated 2024).

Series [1] is described as follows: Storage stability test of chlorophyll a in stabilization candidate oils (HPLC content). The following applies: chlorophyll a in the oil layer, room temperature storage, dark place. As for the experimental part:
(§1) In order to analyze the content of extracted chlorophyll, high-performance liquid chromatography (HPLC) was used. Purification was performed using the Agilent 1100 Series HPLC system from AGILENT, and the column used was Shimadzu Shim-pack C18 analytical column (250 mm×4.6 mm, 5 μm, 100). The peak was detected as ultraviolet ray absorption using a diode array detector. The injection volume was […], and the flow rate was […].
(§2) The reference material for chlorophyll a was purchased from Aldrich Chemical Co. (Milwaukee, Wis.), and was used without a further purification process.
The storage stability of chlorophyll a stabilization candidate materials used in the above process for chlorophyll-a was tested. Samples were collected for each storage period at various temperatures, and the content of chlorophyll a was analyzed using the HPLC system described above.
Temperatures for the test were respectively freezing temperature (−20° C.), refrigerating temperature (4° C.), room temperature (25° C.), high temperature (50° C.), and being left at room temperature.
In this process, ethanol was removed. Thereafter, the obtained was stored for a predetermined period in a dark place for each temperature to collect samples for each storage period, and then the content of chlorophyll a was analyzed using the HPLC system described above.

Series [2] in a line: Fractional extraction of chlorophyll a from ethanol extract into oil layer (HPLC). It is filed as physicochemical. To be noted: oil added 1:1 (50 ml) to ethanol extract of wheatgrass powder, stirred, layers separated for 2 minutes. How it is done:
as §1, §2

`CC(C)=CCC/C(C)=C/CC/C(C)=C/CC/C=C(\C)CC/C=C(\C)CCC=C(C)C` [squalene]: the “half-life of chlorophyll a” value in series [1] is 7 months. Besides, the “chlorophyll a moved to / dissolved in the oil phase” value in series [2] is on record as “more than 80%”.
